The text below walks through data of patent US10947252B2, “Inhibitors of KEAP1-Nrf2 protein-protein interaction” (Janssen Pharmaceutica NV, priority 2018, dated 2021).

In test [1] the test system is Glo-Response ARE-luc2P HEK293 cell line. Kind of test: ARE luciferase reporter cell-based assay.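 Note: luciferase signal tracks Nrf2 activation of the ARE once compounds disrupt KEAP1-Nrf2 binding, read with One-Glo reagent, DMSO serving as low control.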 The following applies: average of results obtained. A general note: Reporter assays use an easily measured gene product as a stand-in for the process of interest.
Test [2] has as its target Kelch domain of human KEAP1 (321-624 aa) (Homo sapiens (Human), UniProt Q14145). Kind of test: KEAP1 KELCH ThermoFluor binding assay.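 Note: Ligand-induced melting temperature shift of E. coli-expressed KEAP1 Kelch protein, Kd estimated from concentration-response curves of ΔTm.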 To be noted: KEAP Kelch […], 1,8-ANS, pH 7.0, average of results obtained, read-out: Tf Kd. (In general: DSF heats the sample and reads unfolding from a dye or from intrinsic fluorescence.)

Kelch domain of human KEAP1 (321-624 aa), sequence (Q14145 321-624): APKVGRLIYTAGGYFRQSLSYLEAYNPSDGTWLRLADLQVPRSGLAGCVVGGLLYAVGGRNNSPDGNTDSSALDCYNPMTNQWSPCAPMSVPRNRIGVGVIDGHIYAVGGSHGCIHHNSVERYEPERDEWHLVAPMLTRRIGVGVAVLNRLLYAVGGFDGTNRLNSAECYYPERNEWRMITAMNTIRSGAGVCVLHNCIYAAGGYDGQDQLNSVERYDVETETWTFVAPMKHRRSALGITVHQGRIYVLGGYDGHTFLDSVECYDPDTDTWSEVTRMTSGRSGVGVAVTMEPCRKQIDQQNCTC

Consider `Cc1ccc([C@@H](CC(=O)O)c2ccc3c(nnn3CC3CC3)c2C)cc1CN1C[C@H]2CCCCN2c2ncccc2S1(=O)=O` (single isomer, unassigned) [Example 235, (*R)-3-(1-(Cyclopropylmethyl)-4-methyl-1H-benzo[d][1,2,3]triazol-5-yl)-3-(3-(((*R)-5,5-dioxido-7,7a,8,9,10,11-hexahydro-6H-dipyrido[2,1-d:2′,3′-f][1,2,5]thiadiazepin-6-yl)methyl)-4-methylphenyl)propanoic Acid], for which, in test [1] (Homo sapiens, HEK293, 24 h), the EC50 – broadly, the concentration that produces a half-maximal response – was determined as 1.9 nM. Besides, the Kd (usually a measure of binding affinity in units of concentration) in test [2] was below 1 nM.

In test [1] (Homo sapiens, HEK293, 24 h), `Cc1cnc2c(c1)S(=O)(=O)N(Cc1cc([C@@H](c3ccn4c(C(F)(F)F)nnc4c3C)C(C)(C)C(=O)O)ccc1C)CC1(CNC1)O2` (single isomer, unassigned) [Example 342, (*S)-2,2-Dimethyl-3-(4-methyl-3-((8′-methyl-1′,1′-dioxidospiro[azetidine-3,4′-pyrido[2,3-b][1,4,5]oxathiazepin]-2′(3′H)-yl)methyl)phenyl)-3-(8-methyl-3-(trifluoromethyl)-[1,2,4]triazolo[4,3-a]pyridin-7-yl)propanoic Acid] came in with an EC50 of 5.6 nM. In addition, the Kd in test [2] is below 1 nM.

In the case of `Cc1ccc([C@H](CC(=O)O)c2ccc3c(nnn3C)c2C(F)F)cc1CN1CC2CCCN2c2ncccc2S1(=O)=O` (single isomer, unassigned) [Example 72, (*S)-3-(4-(Difluoromethyl-1-methyl-1H-benzo[d][1,2,3]triazol-5-yl)-3-(3-(((R-5,5-dioxido-7a,8,9,10-tetrahydropyridi[2,3-f]pyrrolo[2,1-d][1,2,5]thiadiazepin-6(7H)-yl)methyl)-4-methylphenyl)propanoic Acid], in test [1] (24 hours), the concentration giving a half-maximal response (EC50) is 1970 nM. In addition, the Kd in test [2] is 5.4 nM.

As for `Cc1cc2cc(C(CC(=O)O)c3ccc(C)c(CN4C[C@@H]5CCCCN5c5ncccc5S4(=O)=O)c3)n(C)c2nn1` (mixture of isomers) [Example 440, 3-(3,7-Dimethyl-7H-pyrrolo[2,3-c]pyridazin-6-yl)-3-(3-(((S)-5,5-dioxido-7,7a,8,9,10,11-hexahydro-6H-dipyrido[2,1-d:2′,3′-f][1,2,5]thiadiazepin-6-yl)methyl)-4-methylphenyl)propanoic Acid], the EC50 in test [1] (Homo sapiens, HEK293, 24 h) came out at 714 nM. In addition, the Kd in test [2] is below 1 nM.

As for `Cc1ccc([C@@H](CC(=O)O)c2ccn3c(C(F)F)nnc3c2C)cc1CN1CC2(CC2)Oc2ncc(Cl)cc2S1(=O)=O` (single isomer, unassigned) [Example 531, (*R)-3-(3-((8′-Chloro-1′,1′-dioxidospiro[cyclopropane-1,4′-pyrido[2,3-b][1,4,5]oxathiazepin]-2′(3′H)-yl)methyl)-4-methylphenyl)-3-(3-(difluoromethyl)-8-methyl-[1,2,4]triazolo[4,3-a]pyridin-7-yl)propanoic Acid], in test [1] (Homo sapiens, HEK293, 24 h), the response was half-maximal at 113 nM (EC50). The Kd in test [2] was below 1 nM.

`Cc1cc2c(nc1OCCN1CCCC1)OC1(CC1)CN(Cc1cc([C@@H](c3ccc4c(nnn4C4CC4)c3C)C(C)(C)C(=O)O)cnc1C)S2(=O)=O` (single isomer, unassigned) [Example 625, (*R)-3-(1-Cyclopropyl-4-methyl-1H-benzo[d][1,2,3]triazol-5-yl)-2,2-dimethyl-3-(6-methyl-5-((8′-methyl-1′,1′-dioxido-7′-(2-(pyrrolidine-1-yl)ethoxy)spiro[cyclopropane-1,4′-pyrido[2,3-b][1,4,5]]oxathiazepin]-2′(3′H)-yl)methyl)pyridine-3-yl)propanoic Acid]: the EC50 in test [1] (Homo sapiens, HEK293, 24 h) is 70.6 nM. For the same compound, the Kd in test [2] is below 1 nM.

Consider `CCn1nnc2c(C)c([C@H](c3ccc(C)c(CN4CC5(CCOCC5)Oc5ncccc5S4(=O)=O)n3)C(C)(C)C(=O)O)ccc21` (single isomer, unassigned) [Example 555, (*S)-3-(6-((1′,1′-Dioxido-2,3,5,6-tetrahydrospiro[pyran-4,4′-pyrido[2,3-b][1,4,5]oxathiazepin]-2′(3′H)-yl)methyl)-5-methylpyridin-2-yl)-3-(1-ethyl-4-methyl-1H-benzo[d][1,2,3]triazol-5-yl)-2,2-dimethylpropanoic Acid], for which the midpoint of the response in test [1] (Homo sapiens, HEK293, 24 h), the EC50, lay at 1.42 nM. For the same compound, in test [2], the Kd is below 1 nM.

For `Cc1ccc(C(CC(=O)O)c2ccn3c(C(F)(F)F)nnc3c2C)nc1CN1CC2(COC2)Oc2ccccc2S1(=O)=O` (stereo not shown) [Example 484, 3-(6-((1,1-Dioxidospiro[benzo[b][1,4,5]oxathiazepine-4,3′-oxetan]-2(3H)-yl)methyl)-5-methylpyridin-2-yl)-3-(8-methyl-3-(trifluoromethyl)-[1,2,4]triazolo[4,3-a]pyridin-7-yl)propanoic Acid], a half-maximal response in test [1] (Homo sapiens, HEK293, 24 h) (EC50) required 226 nM. Moreover, in test [2], the Kd is below 1 nM.

`Cc1ccc([C@H](CC(=O)O)c2ccn3c(C(F)(F)F)nnc3c2C)cc1CN1C[C@H]2CCCCN2c2ncc(C#N)cc2S1(=O)=O` (single isomer, unassigned) [Example 9, (*S)-3-(3-(((*R)-3-Cyano-5,5-dioxido-7,7a,8,9,10,11-hexahydro-6H-dipyrido[2,1-d:2′,3′-f][1,2,5]thiadiazepin-6-yl)methyl)-4-methylphenyl)-3-(8-methyl-3-(trifluoromethyl)-[1,2,4]triazolo[4,3-a]pyridin-7-yl)propanoic Acid] gave an EC50 in test [1] (Homo sapiens, HEK293, 24 h) of 3.8 nM. Further, the Kd in test [2] is below 1 nM.

Take `Cc1ccc([C@H](CC(=O)O)c2ccn3c(C(F)(F)F)nnc3c2C)cc1CN1C[C@@H]2CCN2c2ncccc2S1(=O)=O` (single isomer, unassigned) [Example 292, (*S)-3-(3-(((*S)-5,5-Dioxido-7,7a,8,9-tetrahydro-6H-azeto[2,1-d]pyrido[2,3-f][1,2,5]thiadiazepin-6-yl)methyl)-4-methylphenyl)-3-(8-methyl-3-(trifluoromethyl)-[1,2,4]triazolo[4,3-a]pyridin-7-yl)propanoic Acid]: the 50% effective concentration (EC50) in test [1] (Homo sapiens, HEK293, 24 h) was 68.3 nM. In test [2], the Kd was below 1 nM.

In turn, `Cc1cnc2c(c1)S(=O)(=O)N(Cc1cc([C@@H](c3ccc4c(nnn4C4CC4)c3C)C(C)(C)C(=O)O)cnc1C)CC1(COC1)O2` (single isomer, unassigned) [Example 623, (*R)-3-(1-Cyclopropyl-4-methyl-1H-benzo[d][1,2,3]triazol-5-yl)-2,2-dimethyl-3-(6-methyl-5-((8′-methyl-1′,1′-dioxidospiro[oxetane-3,4′-pyrido[2,3-b][1,4,5]]oxathiazepin]-2′(3′H)-yl)methyl)pyridine-3-yl)propanoic Acid] returned an EC50 in test [1] (Homo sapiens, HEK293, 24 h) of 7.5 nM. Also, in test [2], the Kd was below 1 nM.

Consider `Cc1cnc2c(c1)S(=O)(=O)N(Cc1cc([C@H](c3ccn4c(C5CC5)nnc4c3C)C(C)(C)C(=O)O)ccc1C)CC1(COC1)O2` (single isomer, unassigned) [Example 619, (*R)-3-(3-Cyclopropyl-8-methyl-[1,2,4]triazolo[4,3-a]pyridin-7-yl)-2,2-dimethyl-3-(4-methyl-3-((8′-methyl-1′,1′-dioxidospiro[oxetane-3,4′-pyrido[2,3-b][1,4,5]oxathiazepin]-2′(3′H)-yl)methyl)phenyl)propanoic Acid], for which the response in test [1] (Homo sapiens, HEK293, 24 h) was half-maximal at 4.48 nM (EC50). For the same compound, the Kd in test [2] was below 1 nM.

Turning to `Cc1cnc([C@H](c2ccn3c(C(F)F)nnc3c2C)C(C)(C)C(=O)O)cc1CN1CC2(CCOCC2)Oc2nc(OCCN3CCCC3)c(C)cc2S1(=O)=O` (single isomer, unassigned) [Example 639, (*R)-3-(3-(Difluoromethyl)-8-methyl-[1,2,4]triazolo[4,3-a]pyridin-7-yl)-2,2-dimethyl-3-(5-methyl-4-((8′-methyl-1′,1′-dioxido-7′-(2-(pyrrolidin-1-yl)ethoxy)-2,3,5,6-tetrahydrospiro[pyran-4,4′-pyrido[2,3-b][1,4,5]oxathiazepin]-2′(3′H)-yl)methyl)pyridin-2-yl)propanoic Acid], in test [1] (Homo sapiens, HEK293, 24 h), a half-maximal response (EC50) required 5170 nM. Moreover, in test [2], the Kd is 1820 nM.

The compound `Cc1cnc2c(c1)S(=O)(=O)N(Cc1cc([C@@H](c3ccc4c(nnn4C4CC4)c3C)C(C)(C)C(=O)O)cnc1C)CC1(CCOCC1)O2` (single isomer, unassigned) [Example 229, (*R)-3-(1-Cyclopropyl-4-methyl-1H-benzo[d][1,2,3]triazol-5-yl)-2,2-dimethyl-3-(6-methyl-5-((8′-methyl-1′,1′-dioxido-2,3,5,6-tetrahydrospiro[pyran-4,4′-pyrido[2,3-b][1,4,5]oxathiazepin]-2′(3′H)-yl)methyl)pyridin-3-yl)propanoic Acid] returned an EC50 in test [1] (Homo sapiens, HEK293, 24 h) of 2430 nM. The Kd in test [2] was 17000 nM.

As to `Cc1cnc2c(c1)S(=O)(=O)N(Cc1cc(C(c3ccn4c(C(F)(F)F)nnc4c3C)C(C)(C)C(=O)O)ncc1C)CC1(CC1)O2` (racemic) [Example 587, (R/S)-2,2-Dimethyl-3-(8-methyl-3-(trifluoromethyl)-[1,2,4]triazolo[4,3-a]pyridin-7-yl)-3-(5-methyl-4-((8′-methyl-1′,1′-dioxidospiro[cyclopropane-1,4′-pyrido[2,3-b][1,4,5]oxathiazepin]-2′(3′H)-yl)methyl)pyridin-2-yl)propanoic Acid], the EC50 in test [1] (Homo sapiens, HEK293, 24 h) came out at 17.4 nM. The Kd in test [2] was below 1 nM.

The compound `Cc1ccc([C@@H](CC(=O)O)c2ccc3c(nnn3C3CC3)c2C)cc1CN1C[C@H]2CCCCN2c2ncccc2S1(=O)=O` (single isomer, unassigned) [Example 213, (*R)-3-(1-Cyclopropyl-4-methyl-1H-benzo[d][1,2,3]triazol-5-yl)-3-(3-(((*R)-5,5-dioxido-7,7a,8,9,10,11-hexahydro-6H-dipyrido[2,1-d:2′,3′-f][1,2,5]thiadiazepin-6-yl)methyl)-4-methylphenyl)propanoic Acid] yielded an EC50 in test [1] (Homo sapiens, HEK293, 24 h) of 8 nM. The Kd in test [2] was below 1 nM.

Compound `Cc1ccc(C(CC(N)=O)c2ccn3c(C(F)(F)F)nnc3c2C)cc1CN1C[C@@H]2CCCCN2c2ncccc2S1(=O)=O` (stereo in doubt) [Example 547, 3-(3-(((*S)-5,5-Dioxido-7,7a,8,9,10,11-hexahydro-6H-dipyrido[2,1-d:2′,3′-f][1,2,5]thiadiazepin-6-yl)methyl)-4-methylphenyl)-3-(8-methyl-3-(trifluoromethyl)-[1,2,4]triazolo[4,3-a]pyridin-7-yl)propanamide] came in with an EC50 in test [1] (Homo sapiens, HEK293, 24 h) of 9640 nM. Further, the Kd in test [2] was 602 nM.
